The numbers were not newly measured in US20160022604A1, “DIRECTLY COMPRESSED OSPEMIFENE COMPOSITIONS” (CADILA HEALTHCARE LIMITED, priority 2014, published 2016), which cites them from elsewhere.

The conditions of data set [1]: experimental models and human volunteers.
For data set [2] the following is noted: classical hormonal tests.

On to `OCCOc1ccc(/C(=C(/CCCl)c2ccccc2)c2ccccc2)cc1` [Ospemifene, 2-[4-(4-chloro-1,2-diphenylbut-1-enyl)phenoxy]ethanol], for which the “total and LDL cholesterol levels” value in data set [1] is listed as “decreases”. The “estrogenic and antiestrogenic effects” value in data set [2] was “relatively weak”.
